Assays:
[1] = Biliary excretion in castrated pig assessed as unchanged drug level treated with finasteride at 0.8 mg/kg administered as intrajejunal dose measured during 6 hrs sampling by UPLC-tandem mass spectrometry; type: ADME, organism-based, Sus scrofa, Bile; set-up: dose 0.8 mg/kg; conditions: in vivo, other
[2] = Biliary excretion in castrated pig assessed as unchanged drug level treated with finasteride at 0.8 mg/kg administered as intrajejunal dose 20 mins after ketoconazole administration measured during 6 hrs sampling by UPLC-tandem mass spectrometry; type: ADME, organism-based, Sus scrofa, Bile; set-up: dose 0.8 mg/kg; conditions: in vivo, other
[3] = Biliary excretion in castrated pig assessed as unchanged drug level treated with finasteride at 0.2 mg/kg, iv measured during 6 hrs sampling by UPLC-tandem mass spectrometry; type: ADME, organism-based, Sus scrofa, Bile; set-up: dose 0.2 mg/kg, route intravenous; conditions: in vivo
[4] = Apparent biliary clearance in castrated pig treated with finasteride at 0.8 mg/kg administered as intrajejunal dose by UPLC-tandem mass spectrometry; type: ADME, organism-based, Sus scrofa, Bile; set-up: dose 0.8 mg/kg; conditions: in vivo
[5] = Apparent biliary clearance in castrated pig treated with finasteride at 0.8 mg/kg administered as intrajejunal dose 20 mins after ketoconazole administration by UPLC-tandem mass spectrometry; type: ADME, organism-based, Sus scrofa, Bile; set-up: dose 0.8 mg/kg; conditions: in vivo
[6] = Apparent biliary clearance in castrated pig treated with finasteride at 0.2 mg/kg, iv by UPLC-tandem mass spectrometry; type: ADME, organism-based, Sus scrofa, Bile; set-up: dose 0.2 mg/kg, route intravenous; conditions: in vivo
[7] = Drug excretion in castrated pig urine assessed as unchanged drug level treated with finasteride at 0.8 mg/kg administered as intrajejunal dose measured during 6 hrs sampling by UPLC-tandem mass spectrometry; type: ADME, organism-based, Sus scrofa; set-up: dose 0.8 mg/kg; conditions: in vivo, other
[8] = Drug excretion in castrated pig urine assessed as unchanged drug level treated with finasteride at 0.8 mg/kg administered as intrajejunal dose 20 mins after ketoconazole administration measured during 6 hrs sampling by UPLC-tandem mass spectrometry; type: ADME, organism-based, Sus scrofa; set-up: dose 0.8 mg/kg; conditions: in vivo, other
[9] = Drug excretion in castrated pig urine assessed as unchanged drug level treated with finasteride at 0.2 mg/kg, iv measured during 6 hrs sampling by UPLC-tandem mass spectrometry; type: ADME, organism-based, Sus scrofa; set-up: dose 0.2 mg/kg, route intravenous; conditions: in vivo
[10] = Cmax in castrated pig plasma withdrawn from portal vein at 10 mg/kg dosed via intrajejunal route by HPLC-UV; conditions: male
[11] = Tmax in castrated pig plasma withdrawn from portal vein at 10 mg/kg dosed via intrajejunal route by HPLC-UV; conditions: male
[12] = Cmax in castrated pig plasma withdrawn from femoral vein at 10 mg/kg dosed via intrajejunal route by HPLC-UV; conditions: male
[13] = Tmax in castrated pig plasma withdrawn from femoral vein at 10 mg/kg dosed via intrajejunal route by HPLC-UV; conditions: male
[14] = Half life in castrated pig plasma withdrawn from portal vein at 10 mg/kg dosed via intrajejunal route by HPLC-UV; conditions: male
[15] = Half life in castrated pig plasma withdrawn from femoral vein at 10 mg/kg dosed via intrajejunal route by HPLC-UV; conditions: male
[16] = AUC (0 to 6 hrs) in castrated pig plasma withdrawn from portal vein dosed via intrajejunal route by UPLC-tandem mass spectrometry; conditions: male
[17] = AUC (0 to 6 hrs) in castrated pig plasma withdrawn from femoral vein dosed via intrajejunal route by UPLC-tandem mass spectrometry; conditions: male

Compound	Ae [1] [µmol]	Ae [2] [µmol]	Ae [3] [µmol]	CL(app) [4] [mL/min/kg]	CL(app) [5] [mL/min/kg]	CL(app) [6] [mL/min/kg]	Ae [7] [µmol]	Ae [8] [µmol]	Ae [9] [µmol]	Cmax [10] [µM]	Tmax [11] [h]	Cmax [12] [µM]	Tmax [13] [h]	half-life [14] [h]	half-life [15] [h]	AUC(0-t) at 6 h [16] [µM·h]	AUC(0-t) at 6 h [17] [µM·h]
CC(C)(NC(=O)[C@H]1CC[C@H]2[C@@H]3CC[C@H]4NC(=O)C=C[C@]4(C)[C@H]3CC[C@]12C)C(=O)O	1.2	0.7	0.6	2.4	1.2	3.6	8.5	3.4	1.2								
CC(=O)N1CCN(c2ccc(OCC3COC(Cn4ccnc4)(c4ccc(Cl)cc4Cl)O3)cc2)CC1 (configuration not stated) [KETOCONAZOLE]										9	0.7	3	1.8	3.1	4.1	22	13
